Legend:
[1] = system: retinoic acid nuclear receptors (RARs); test: Fixing on nuclear receptors RARs in nucleosol of F9 cells, analysed by HPSEC; assay type: binding, murin; conditions: for molecules of ligand fixed to the RARs per cell (HPSEC peak surface standardized to number of cells): F9 cells, 20 nM tritiated ligand
Procedure: Cultures of F9 cells of murin embryonic carcinoma (normally four 90 mm dishes containing in total 4-7×10^7 cells per incubation condition) were washed once with pBS (saline phosphate buffer) and incubated for 3 hours in a medium, without serum, supplemented with the marked retinoic homolog (to verify the specifity). The cells were then detached with a trypsin-EDTA mixture and numbered with a Burker hemocytometer. […] 50 μl of marked extract were injected on a 9×250 mm GF 250 column (Dupont de Nemours). The elution was carried out in a buffer 0.3M KH2 PO4, pH 7.8 at a rate of 1 ml/min. The protein content was followed by measuring the optical density at 280 nm. 28 fractions of 0.3 ml each were collected and counted in Picofluor (Packard) scintillating agent. For each retinoid concentration, the number of bonded molecules was determined using the surface of the radioactivity peak and the calculated concentration of demisaturation (C50). The molecular weight calibration of the column was carried out using human albumin (67 kDa), ovalbumin (45 kDa) and myoglobin (16.8 kDa). The dose-response curves and the competition curves were analyzed on a computer through nonlinear regression using the various forms of the Clark equation.

[2] = target: T1, CRABP (cellular retinoic acid binding protein) (Rattus norvegicus, UniProt P62966); test: Direct fixing on CRABP binding protein in rat testicle cytosol, Sephadex G25 separation
T1 construct: rat testicle cytosol containing CRABP; from tissue; host or cells: rat testicle homogenate / cytosol
Procedure: The difference ( -- ) represents the specific bond.
The total fixing non-specific+specific ( .circle.-- .circle.) is obtained by incubation of increasing concentration (up to a maximum of […]) of the claimed compound with a constant quantity (0.3 ml) of a rat testicle homogenate (CRABP-rich organ). The non-specific fixing of the tritiated compound is determined in parallel, by measuring the fixing with increasing concentrations of the radioactive ligand in the presence of a large excess (1 μm) of cold homolog ligand (.quadrature.--.quadrature.). An incubation time of two hours is necessary for the establishment of balanced conditions.
The elution is done directly in scintillation tubes and the radioactivity is measured by counting.
The difference between the total fixing curve ( .circle.-- .circle.) and non-specific fixing (.quadrature.--.quadrature.) gives the specific fixing curve ( -- ). Analysis of this curve provides the dissociation constant at equilibrium (Kd) which is the concentration of the product required for 50% saturation of CRABP. This constant is a measurement of the affinity of the ligand for its bonding protein, Kd being inversely proportional to affinity (the smaller the Kd, the greater the affinity).

T1 sequence (P62966 whole entry): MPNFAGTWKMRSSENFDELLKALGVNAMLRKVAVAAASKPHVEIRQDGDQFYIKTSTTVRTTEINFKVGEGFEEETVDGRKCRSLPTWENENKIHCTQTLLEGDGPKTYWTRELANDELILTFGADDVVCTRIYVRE

Compound | specificity of fixing on RARs (about 45 kDa radioactivity peak) ([1]; F9 cells incubated with 20 nM tritiated ligand, co-incubation with an excess of 1000 times of cold compound I) | molecules of ligand fixed to the RARs per cell (HPSEC peak surface standardized to number of cells) [1] | specific fixing on CRABP ([2]; rat testicle homogenate, increasing concentrations of tritiated ligand, with or without 1 μm cold homolog ligand, two hours incubation) | fixing on RARs in the presence of excess cold ligand ([1]; F9 cells incubated with 20 nM tritiated retinoic acid, excess of 100 times of cold retinoic acid) | nature of the specific fixing on CRABP ([2]; rat testicle cytosol) | non-specific fixing as share of the total fixing ([2]; rat testicle cytosol, in the range of concentrations employed)
[3H]c1cc(-c2ccc3cc(C(=O)O)ccc3c2[3H])cc(C23CC4CC(CC(C4)C2)C3)c1OC [Example 1, 6-[3-(1-adamantyl)-4-methoxyphenyl]-2-naphthoic acid marked with tritium] | specific | approximately 4,000 molecules per cell | no specific fixing | – | – | –
CC1=C(/C=C/C(C)=C/C=C/C(C)=C/C(=O)O)C(C)(C)CCC1 [retinoic acid] | – | approximately 4,000 molecules per cell | – | inhibited | saturable and reversible | less than 20%

Source: patent US5149631A, “Compound marked with tritium, its preparation and its use in the location of nuclear receptors of retinoids” (Centre International de Recherches Dermatologiques Galderma …, priority 1989, dated 1992)
